Data published in patent publication US20260166128A1, “HUMAN AMYLIN ANALOG, AND DERIVATIVE THEREOF AND USE THEREOF” (priority 2022, published 2026).
Numbered stars: 1 amine (or outer) side, 2 acyl side, 3 side chain; on linkers, the order of the positions; unused ones are H or OH. Bridge positions count the residues as written; N and C are the ends. Side chains are listed from the residue outwards. Peptide text beside a SMILES is read from it. * marks the point of attachment. C20 diacid = O=C(O)CCCCCCCCCCCCCCCCCCC(=O)*; γGlu = O=C(O)[C@H](CCC(=O)[*:2])N[*:1]; AEEA = NCCOCCOCC(=O)O

What was measured:
[1] = Freeze-thaw stability of derivatives (freeze-thaw yield by liquid chromatography); format: physicochemical; conditions: for Dissolution property: appearance after dissolution at 0.2 mg/ml in 20 mM phosphate buffer solution (PB) (pH 7.0); for Freeze storage property: appearance after overnight storage at −20° C. and thawing to room temperature, 0.2 mg/ml in 20 mM PB (pH 7.0)
Procedure: The freeze-dried powder of the polypeptide analog derivative prepared in Example 1 was mixed with a buffer solution according to a mass-volume ratio of 0.2 mg/ml, the polypeptide was dissolved with 20 mM phosphate buffer solution (PB) (pH 7.0), the sample was stored at −20° C. for overnight storage, and then the sample was taken out to be restored to room temperature for thawing. During the experiment, property changes of the polypeptide after dissolution and freezing and thawing were observed and recorded respectively, and concentrations of the polypeptide before and after the freezing and thawing were detected by the following liquid chromatography method: Materials and equipment: high-performance liquid chromatographic instrument (Agilent 1200), ultrapure water (18.2 MΩ self-manufactured ultrapure water), acetonitrile (HPLC grade), and trifluoroacetic acid (HPLC grade); and reversed-phase chromatographic column: […] A sample to be tested was centrifuged at 10,000 rpm and 4° C. for 3 minutes, and a supernatant was taken and added into a liquid-phase sample injection bottle. […] A freeze-thaw yield was calculated by the following formula: freeze-thaw yield=concentration of polypeptide after the freezing and thawing/concentration of polypeptide before the freezing and thawing.

human amylin receptor = biological target: T1, human amylin receptor (Homo sapiens, UniProt O60896+P30988); experiment: Luciferase assay of amylin derivatives in amylin receptor/CRE-luc CHO cell line; format: cell-based; conditions: CHO-K1/Ga15/AMY3 CRE-luc cells, 24 hours incubation, F12 medium containing 10% FBS; read-out: EC50
T1 construct: host or cells: CHO-K1/Ga15/AMY3 cells, further stably transfected with a CRE-luciferase plasmid
T1 sequence (P30988 25-474): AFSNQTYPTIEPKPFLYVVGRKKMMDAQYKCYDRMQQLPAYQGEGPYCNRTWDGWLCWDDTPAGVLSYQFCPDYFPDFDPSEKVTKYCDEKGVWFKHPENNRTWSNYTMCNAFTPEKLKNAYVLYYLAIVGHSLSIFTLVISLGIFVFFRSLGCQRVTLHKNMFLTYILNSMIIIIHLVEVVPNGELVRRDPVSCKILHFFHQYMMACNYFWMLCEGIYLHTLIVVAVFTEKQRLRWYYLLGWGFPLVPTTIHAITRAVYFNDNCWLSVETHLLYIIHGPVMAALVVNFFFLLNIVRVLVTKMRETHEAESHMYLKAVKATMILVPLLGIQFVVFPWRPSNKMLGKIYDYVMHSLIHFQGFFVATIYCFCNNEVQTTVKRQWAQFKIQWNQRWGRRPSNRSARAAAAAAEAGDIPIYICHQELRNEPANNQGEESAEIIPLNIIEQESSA
T1 sequence (O60896 24-148 partner): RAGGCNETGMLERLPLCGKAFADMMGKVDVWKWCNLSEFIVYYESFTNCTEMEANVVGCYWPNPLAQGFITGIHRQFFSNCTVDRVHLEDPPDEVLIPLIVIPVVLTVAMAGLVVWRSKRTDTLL
Procedure: The experiment was intended to detect the activity or efficacy of the amylin derivatives on a human amylin receptor in vitro by luciferase assay.
50 μL of growth medium (F12 medium containing 10% FBS) was added into each well of a white 96-well plate, and the stably transfected amylin/CRE-lue CHO cells were inoculated into the white 96-well plate at a density of about 20,000 cells/well for activity determination.

Molecule	Dissolution property [1]	Freeze storage property [1]	EC50 (human amylin receptor)
CC[C@H](C)[C@H](NC(=O)[C@@H]1CCCN1C(=O)CNC(=O)[C@H](CC(C)C)NC(=O)[C@H](CC(N)=O)NC(=O)[C@H](CCCCNC(=O)COCCOCCNC(=O)COCCOCCNC(=O)CC[C@H](NC(=O)CCCCCCCCCCCCCCCCCCC(=O)O)C(=O)O)NC(=O)[C@H](CO)NC(=O)[C@H](CO)NC(=O)[C@H](Cc1c[nH]cn1)NC(=O)[C@H](CCCNC(=N)N)NC(=O)[C@H](CC(C)C)NC(=O)[C@H](Cc1ccccc1)NC(=O)[C@H](CCC(=O)O)NC(=O)[C@H](C)NC(=O)[C@H](CC(C)C)NC(=O)[C@H](CCCNC(=N)N)NC(=O)[C@H](CCC(N)=O)NC(=O)[C@@H](NC(=O)[C@H](C)NC(=O)[C@@H]1CSSC[C@H](NC(=O)[C@@H](N)CCCNC(=N)N)C(=O)N[C@@H](CC(N)=O)C(=O)N[C@@H]([C@@H](C)O)C(=O)N[C@@H](C)C(=O)N[C@@H]([C@@H](C)O)C(=O)N1)[C@@H](C)O)C(=O)N[C@@H](CC(C)C)C(=O)N1CCC[C@H]1C(=O)N1CCC[C@H]1C(=O)N[C@H](C(=O)N[C@@H](CC(N)=O)C(=O)N[C@H](C(=O)NCC(=O)N[C@@H](CO)C(=O)N[C@@H](CC(N)=O)C(=O)N[C@H](C(=O)N1CCC[C@H]1C(N)=O)[C@@H](C)O)C(C)C)[C@@H](C)O [PD001] (H-RCNTATCATQRLAEFLRHSSK([AEEA-AEEA-γGlu-C20 diacid])NLGPILPPTNVGSNTP-NH2; disulfide 2-7 (inferred); N-terminus assumed)	Clear	Clear	0.042 nM
CC[C@H](C)[C@H](NC(=O)[C@@H]1CCCN1C(=O)CNC(=O)[C@H](CC(C)C)NC(=O)[C@H](CCCCNC(=O)COCCOCCNC(=O)COCCOCCNC(=O)CC[C@H](NC(=O)CCCCCCCCCCCCCCCCCCC(=O)O)C(=O)O)NC(=O)[C@H](CC(N)=O)NC(=O)[C@H](CO)NC(=O)[C@H](CO)NC(=O)[C@H](Cc1c[nH]cn1)NC(=O)[C@H](CCCNC(=N)N)NC(=O)[C@H](CC(C)C)NC(=O)[C@H](Cc1ccccc1)NC(=O)[C@H](CCC(=O)O)NC(=O)[C@H](C)NC(=O)[C@H](CC(C)C)NC(=O)[C@H](CCCNC(=N)N)NC(=O)[C@H](CCC(N)=O)NC(=O)[C@@H](NC(=O)[C@H](C)NC(=O)[C@@H]1CSSC[C@H](NC(=O)[C@@H](N)CCCNC(=N)N)C(=O)N[C@@H](CC(N)=O)C(=O)N[C@@H]([C@@H](C)O)C(=O)N[C@@H](C)C(=O)N[C@@H]([C@@H](C)O)C(=O)N1)[C@@H](C)O)C(=O)N[C@@H](CC(C)C)C(=O)N1CCC[C@H]1C(=O)N1CCC[C@H]1C(=O)N[C@H](C(=O)N[C@@H](CC(N)=O)C(=O)N[C@H](C(=O)NCC(=O)N[C@@H](CO)C(=O)N[C@@H](CC(N)=O)C(=O)N[C@H](C(=O)N1CCC[C@H]1C(N)=O)[C@@H](C)O)C(C)C)[C@@H](C)O [PD002] (H-RCNTATCATQRLAEFLRHSSNK([AEEA-AEEA-γGlu-C20 diacid])LGPILPPTNVGSNTP-NH2; disulfide 2-7 (inferred); N-terminus assumed)	Clear	Clear	0.119 nM
CC[C@H](C)[C@H](NC(=O)[C@@H]1CCCN1C(=O)CNC(=O)[C@H](CCCCNC(=O)COCCOCCNC(=O)COCCOCCNC(=O)CC[C@H](NC(=O)CCCCCCCCCCCCCCCCCCC(=O)O)C(=O)O)NC(=O)[C@H](CC(N)=O)NC(=O)[C@H](CC(N)=O)NC(=O)[C@H](CO)NC(=O)[C@H](CO)NC(=O)[C@H](Cc1c[nH]cn1)NC(=O)[C@H](CCCNC(=N)N)NC(=O)[C@H](CC(C)C)NC(=O)[C@H](Cc1ccccc1)NC(=O)[C@H](CCC(=O)O)NC(=O)[C@H](C)NC(=O)[C@H](CC(C)C)NC(=O)[C@H](CCCNC(=N)N)NC(=O)[C@H](CCC(N)=O)NC(=O)[C@@H](NC(=O)[C@H](C)NC(=O)[C@@H]1CSSC[C@H](NC(=O)[C@@H](N)CCCNC(=N)N)C(=O)N[C@@H](CC(N)=O)C(=O)N[C@@H]([C@@H](C)O)C(=O)N[C@@H](C)C(=O)N[C@@H]([C@@H](C)O)C(=O)N1)[C@@H](C)O)C(=O)N[C@@H](CC(C)C)C(=O)N1CCC[C@H]1C(=O)N1CCC[C@H]1C(=O)N[C@H](C(=O)N[C@@H](CC(N)=O)C(=O)N[C@H](C(=O)NCC(=O)N[C@@H](CO)C(=O)N[C@@H](CC(N)=O)C(=O)N[C@H](C(=O)N1CCC[C@H]1C(N)=O)[C@@H](C)O)C(C)C)[C@@H](C)O [PD003] (H-RCNTATCATQRLAEFLRHSSNNK([AEEA-AEEA-γGlu-C20 diacid])GPILPPTNVGSNTP-NH2; disulfide 2-7 (inferred); N-terminus assumed)	Clear	Clear	0.14 nM
CC[C@H](C)[C@H](NC(=O)[C@@H]1CCCN1C(=O)[C@H](CCCCNC(=O)COCCOCCNC(=O)COCCOCCNC(=O)CC[C@H](NC(=O)CCCCCCCCCCCCCCCCCCC(=O)O)C(=O)O)NC(=O)[C@H](CC(C)C)NC(=O)[C@H](CC(N)=O)NC(=O)[C@H](CC(N)=O)NC(=O)[C@H](CO)NC(=O)[C@H](CO)NC(=O)[C@H](Cc1c[nH]cn1)NC(=O)[C@H](CCCNC(=N)N)NC(=O)[C@H](CC(C)C)NC(=O)[C@H](Cc1ccccc1)NC(=O)[C@H](CCC(=O)O)NC(=O)[C@H](C)NC(=O)[C@H](CC(C)C)NC(=O)[C@H](CCCNC(=N)N)NC(=O)[C@H](CCC(N)=O)NC(=O)[C@@H](NC(=O)[C@H](C)NC(=O)[C@@H]1CSSC[C@H](NC(=O)[C@@H](N)CCCNC(=N)N)C(=O)N[C@@H](CC(N)=O)C(=O)N[C@@H]([C@@H](C)O)C(=O)N[C@@H](C)C(=O)N[C@@H]([C@@H](C)O)C(=O)N1)[C@@H](C)O)C(=O)N[C@@H](CC(C)C)C(=O)N1CCC[C@H]1C(=O)N1CCC[C@H]1C(=O)N[C@H](C(=O)N[C@@H](CC(N)=O)C(=O)N[C@H](C(=O)NCC(=O)N[C@@H](CO)C(=O)N[C@@H](CC(N)=O)C(=O)N[C@H](C(=O)N1CCC[C@H]1C(N)=O)[C@@H](C)O)C(C)C)[C@@H](C)O [PD004] (H-RCNTATCATQRLAEFLRHSSNNLK([AEEA-AEEA-γGlu-C20 diacid])PILPPTNVGSNTP-NH2; disulfide 2-7 (inferred); N-terminus assumed)	Clear	Clear	0.102 nM
CC[C@H](C)[C@H](NC(=O)[C@@H]1CCCN1C(=O)[C@H](CCCNC(=N)N)NC(=O)[C@H](CC(C)C)NC(=O)[C@H](CC(N)=O)NC(=O)[C@H](CC(N)=O)NC(=O)[C@H](CO)NC(=O)[C@H](CO)NC(=O)[C@H](Cc1c[nH]cn1)NC(=O)[C@H](CCCNC(=N)N)NC(=O)[C@H](CC(C)C)NC(=O)[C@H](Cc1ccccc1)NC(=O)[C@H](CC(=O)O)NC(=O)[C@H](C)NC(=O)[C@H](CC(C)C)NC(=O)[C@H](CCCNC(=N)N)NC(=O)[C@H](CCC(N)=O)NC(=O)[C@@H](NC(=O)[C@H](C)NC(=O)[C@@H]1CSSC[C@H](NC(=O)[C@H](CCCNC(=N)N)NC(=O)CC[C@H](NC(=O)CCCCCCCCCCCCCCCCCCC(=O)O)C(=O)O)C(=O)N[C@@H](CC(N)=O)C(=O)N[C@@H]([C@@H](C)O)C(=O)N[C@@H](C)C(=O)N[C@@H]([C@@H](C)O)C(=O)N1)[C@@H](C)O)C(=O)N[C@@H](CC(C)C)C(=O)N1CCC[C@H]1C(=O)N1CCC[C@H]1C(=O)N[C@H](C(=O)N[C@@H](CC(N)=O)C(=O)N[C@H](C(=O)NCC(=O)N[C@@H](CO)C(=O)N[C@@H](CC(N)=O)C(=O)N[C@H](C(=O)N1CCC[C@H]1C(N)=O)[C@@H](C)O)C(C)C)[C@@H](C)O [PD197] ({C20 diacid-γGlu}-RCNTATCATQRLADFLRHSSNNLRPILPPTNVGSNTP-NH2; disulfide 2-7 (inferred))	–	–	0.025 nM
{C20 diacid-γGlu}-KGGGGRCNTATCATQRLADFLRHSSNNLRPILPPTNVGSNTP-NH2 (disulfide 7-12 (inferred)) [PD198]	–	–	0.029 nM
